Test results as given in ChEMBL document CHEMBL4342418, “1,2,3-Triazole-containing hybrids as potential anticancer agents: Current developments, action mechanisms and structure-activity relationships” (Eur J Med Chem, 2019).

Key:
[1] = system: HepG2; assay: Antiproliferative activity against human HepG2 cells by MTT assay; assay type: functional, cell-based
[2] = system: KB; assay: Antiproliferative activity against human KB cells by MTT assay; assay type: functional, cell-based
[3] = system: MCF7; assay: cells; assay type: functional, cell-based; conditions: Homo sapiens
Description: Antiproliferative activity against human MCF7 cells by MTT assay

[4] = system: MDA-MB-231; assay: Antiproliferative activity against human MDA-MB-231 cells by MTT assay; assay type: functional, cell-based
[5] = system: T47D; assay: Antiproliferative activity against human T47D cells by MTT assay; assay type: functional, cell-based
[6] = system: A549; assay: Antiproliferative activity against human A549 cells assessed as reduction in cell viability after 48 hrs by MTT assay; assay type: functional, cell-based; conditions: A549, 48 h
[7] = system: DU-145; assay: Antiproliferative activity against human DU145 cells assessed as reduction in cell viability after 48 hrs by MTT assay; assay type: functional, cell-based; conditions: DU-145, 48 h
[8] = system: HT-29; assay: Antiproliferative activity against human HT-29 cells assessed as reduction in cell viability after 48 hrs by MTT assay; assay type: functional, cell-based; conditions: HT-29, 48 h
[9] = system: MCF7; assay: Antiproliferative activity against human MCF7 cells assessed as reduction in cell viability after 48 hrs by SRB assay; assay type: functional, cell-based; conditions: MCF7, 48 h
[10] = system: HeLa; assay: Antiproliferative activity against human HeLa cells assessed as reduction in cell viability after 48 hrs by SRB assay; assay type: functional
[11] = system: HepG2; assay: Antiproliferative activity against human HepG2 cells assessed as reduction in cell viability after 48 hrs by SRB assay; assay type: functional; conditions: HepG2, 48 h
[12] = system: IMR-32; assay: Antiproliferative activity against human IMR32 cells assessed as reduction in cell viability after 48 hrs by SRB assay; assay type: functional; conditions: IMR-32, 48 h
[13] = system: A549; assay: cells; assay type: functional, cell-based; conditions: Homo sapiens
Description: Antiproliferative activity against human A549 cells by MTT assay

[14] = system: HBL-100; assay: Antiproliferative activity against human HBL100 cells by MTT assay; assay type: functional, cell-based
[15] = system: HeLa; assay: Antiproliferative activity against human HeLa cells by MTT assay; assay type: functional, cell-based
[16] = system: SW1573; assay: Antiproliferative activity against human SW1573 cells by MTT assay; assay type: functional, cell-based
[17] = system: WiDr; assay: Antiproliferative activity against human WiDr cells by MTT assay; assay type: functional, cell-based
[18] = system: MCF-10A; assay: Cytotoxicity against human MCF10A cells by MTT assay; assay type: cell-based
[19] = system: K562; assay: Antiproliferative activity against human K562 cells assessed as reduction in cell viability after 24 hrs by MTT assay; assay type: functional, cell-based; conditions: K562, 24 h
[20] = system: PC-3; assay: Antiproliferative activity against human PC3 cells assessed as reduction in cell viability after 24 hrs by MTT assay; assay type: functional, cell-based; conditions: PC-3, 24 h
[21] = system: A-431; assay: Antiproliferative activity against human A431 cells assessed as reduction in cell viability after 24 hrs by MTT assay; assay type: functional, cell-based; conditions: A-431, 24 h
[22] = system: MDA-MB-231; assay: Antiproliferative activity against human MDA-MB-231 cells assessed as reduction in cell viability after 24 hrs by MTT assay; assay type: functional, cell-based; conditions: MDA-MB-231, 24 h
[23] = system: COLO 205; assay: Antiproliferative activity against human COLO205 cells assessed as reduction in cell viability after 24 hrs by MTT assay; assay type: functional, cell-based; conditions: COLO 205, 24 h
[24] = system: A549; assay: Antiproliferative activity against human A549 cells assessed as reduction in cell viability after 24 hrs by MTT assay; assay type: functional, cell-based; conditions: A549, 24 h

Structure (SMILES): O=C(NCc1cn(CC(O)Cn2c3c(c4ccccc4c2=O)C(=O)c2ccccc2-3)nn1)c1ccc(Br)cc1 (stereo not given)
- IC50 [1]: 0.76 µM
- IC50 [2]: 0.79 µM

Structure (SMILES): COc1ccc(Cn2cc(Cn3c4ccccc4c(=O)c4cc(OC)ccc43)nn2)cc1
- IC50 [3]: 11 to 16.6 µM
- IC50 [4]: 11 to 16.6 µM
- IC50 [5]: 11 to 16.6 µM

Structure (SMILES): O=C(c1cn(Cc2cccc(Oc3ccccc3)c2)nn1)c1cccnc1Nc1ccc(F)cc1
- IC50 [6]: 0.1 to 1.1 µM
- IC50 [7]: 0.1 to 1.1 µM
- IC50 [8]: 0.1 to 1.1 µM

Structure (SMILES): Cc1ccc(-c2c(OCc3cn(Cc4ccc([N+](=O)[O-])cc4)nn3)cnn2-c2ccc(F)cc2)cc1
- GI50 [9]: 1.8 to 9.7 µM
- GI50 [10]: 1.8 to 9.7 µM
- GI50 [11]: 1.8 to 9.7 µM
- GI50 [12]: 1.8 to 9.7 µM

Structure (SMILES): COC(=O)c1coc([C@H](Cc2ccccc2)n2cc(CC3CC(CCc4ccccc4)CC(O[Si](C)(C)C(C)(C)C)C3)nn2)n1 (stereo not given in full)
- IC50 [13]: 3.1 to 88 µM
- IC50 [14]: 3.1 to 88 µM
- IC50 [15]: 3.1 to 88 µM
- IC50 [16]: 3.1 to 88 µM
- IC50 [5]: 3.1 to 88 µM
- IC50 [17]: 3.1 to 88 µM

Structure (SMILES): Cc1cn([C@H]2C[C@H](n3cc(CCOC(=O)CCC(=O)O[C@@H]4O[C@@H]5O[C@@]6(C)CC[C@H]7[C@H](C)CC[C@@H]([C@H]4C)[C@@]57OO6)nn3)[C@@H](CO)O2)c(=O)[nH]c1=O
- IC50 [1]: 44.3 µM
- IC50 [2]: 16.5 µM

Structure (SMILES): Cc1ccc(-c2c(OCc3cn(Cc4ccccc4Br)nn3)cnn2-c2ccc(F)cc2)cc1
- GI50 [9]: 1.8 to 9.7 µM
- GI50 [10]: 1.8 to 9.7 µM
- GI50 [11]: 1.8 to 9.7 µM
- GI50 [12]: 1.8 to 9.7 µM

Structure (SMILES): Cc1c(C(F)(F)F)cc(Cl)c(Cl)c1-n1nnc(-c2nn(-c3ccccc3)cc2C=O)c1C
- IC50 [3]: 6.8 to 27.6 µM
- IC50 [4]: 6.8 to 27.6 µM
- IC50 [18]: 21.9 to 25.3 µM

Structure (SMILES): COC(=O)c1coc(Cn2cc(CC3CC(O[Si](C)(C)C(C)(C)C)CC(C(C)C)C3)nn2)n1 (stereo not given)
- IC50 [13]: 3.1 to 88 µM
- IC50 [14]: 3.1 to 88 µM
- IC50 [15]: 3.1 to 88 µM
- IC50 [16]: 3.1 to 88 µM
- IC50 [5]: 3.1 to 88 µM
- IC50 [17]: 3.1 to 88 µM

Structure (SMILES): Cc1ccc(-c2c(OCc3cn(Cc4ccccc4Cl)nn3)cnn2-c2ccc(F)cc2)cc1
- GI50 [9]: 1.8 to 9.7 µM
- GI50 [10]: 1.8 to 9.7 µM
- GI50 [11]: 1.8 to 9.7 µM
- GI50 [12]: 1.8 to 9.7 µM

Structure (SMILES): Cc1c(C(=O)Nc2ccccc2)nnn1-c1ccnc2cc(Cl)ccc12
- IC50 [3]: 31.7 µM
- IC50 [4]: 19.1 µM

Structure (SMILES): CC(=O)c1cccc(-n2cc(CO[C@H]3O[C@@H]4O[C@@]5(C)O[C@]46[C@@H](CC[C@@H](C)[C@@H]6C[C@H]5O)[C@H]3C)nn2)c1
- IC50 [19]: 4.06 to 89.9 µM
- IC50 [20]: 4.06 to 89.9 µM
- IC50 [21]: 4.06 to 89.9 µM
- IC50 [22]: 4.06 to 89.9 µM
- IC50 [23]: 4.06 to 89.9 µM
- IC50 [24]: 4.06 to 89.9 µM

Structure (SMILES): C=CCC1CC(Cc2cn([C@H](c3nc(C(=O)OC)co3)C(C)CC)nn2)CC(O[Si](C)(C)C(C)(C)C)C1 (stereo not given in full)
- IC50 [13]: 3.1 to 88 µM
- IC50 [14]: 3.1 to 88 µM
- IC50 [15]: 3.1 to 88 µM
- IC50 [16]: 3.1 to 88 µM
- IC50 [5]: 3.1 to 88 µM
- IC50 [17]: 3.1 to 88 µM

Structure (SMILES): C=C(C)[C@@H]1CC[C@]2(COC(=O)/C=C/C(=O)OCc3cn([C@H]4C[C@H](n5ccc(=O)[nH]c5=O)O[C@@H]4CO)nn3)CC[C@]3(C)[C@H](CC[C@@H]4[C@@]5(C)CC[C@H](O)C(C)(C)[C@@H]5CC[C@]43C)C12 (stereo not given in full)
- IC50 [1]: 1.3 µM
- IC50 [2]: 0.3 µM

Structure (SMILES): COc1ccc(Cn2cc(COc3cnn(-c4ccc(F)cc4)c3-c3ccc(C)cc3)nn2)cc1
- GI50 [9]: 1.8 to 9.7 µM
- GI50 [10]: 1.8 to 9.7 µM
- GI50 [11]: 1.8 to 9.7 µM
- GI50 [12]: 1.8 to 9.7 µM

Structure (SMILES): COc1ccc(Cn2cc(COc3cnn(-c4ccc(C)cc4)c3)nn2)cc1
- GI50 [9]: 1.8 to 9.7 µM
- GI50 [10]: 1.8 to 9.7 µM
- GI50 [11]: 1.8 to 9.7 µM
- GI50 [12]: 1.8 to 9.7 µM

Structure (SMILES): CCC(C)[C@@H](c1nc(C(=O)OC)co1)n1cc(CC2CC(O[Si](C)(C)C(C)(C)C)CC(C(C)C)C2)nn1 (stereo not given in full)
- IC50 [13]: 3.1 to 88 µM
- IC50 [14]: 3.1 to 88 µM
- IC50 [15]: 3.1 to 88 µM
- IC50 [16]: 3.1 to 88 µM
- IC50 [5]: 3.1 to 88 µM
- IC50 [17]: 3.1 to 88 µM

Structure (SMILES): Cc1ccc(-n2cc(OCc3cn(Cc4ccccc4Br)nn3)cn2)cc1
- GI50 [9]: 1.8 to 9.7 µM
- GI50 [10]: 1.8 to 9.7 µM
- GI50 [11]: 1.8 to 9.7 µM
- GI50 [12]: 1.8 to 9.7 µM

Structure (SMILES): O=[N+]([O-])c1ccc(Cn2cc(COc3cnn(-c4ccccc4)c3-c3ccccc3)nn2)cc1
- GI50 [9]: 1.8 to 9.7 µM
- GI50 [10]: 1.8 to 9.7 µM
- GI50 [11]: 1.8 to 9.7 µM
- GI50 [12]: 1.8 to 9.7 µM
